Measured values published in patent publication US6737383B1, “Herbicidal oxadiazolidines” (priority 1999, dated 2004).

Legend:
blackgrass [1] = assay: Test B pre/postemergence blackgrass; format: in vivo, Alopecurus myosuroides
Method in brief: (§1)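 Herbicidal effect was estimated by eye on a ten-point control scale after plants spent twelve to sixteen days in a greenhouse following soil or foliar treatment. Foliar sprays targeted plants at one to four leaves; all doses were formulated in a non-phytotoxic solvent with surfactant.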

wild oat [2] = assay: Test B pre/postemergence wild oat; format: in vivo, Avena fatua; settings: for Plant response rating, Wild oats: Rate 250 g/ha
Method in brief: as §1

rice = assay: Test B flood test rice; format: in vivo, Oryza sativa
Method in brief: (§2)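 Each value is a visual injury score relative to controls, with 10 meaning complete control and 0 no effect. Evaluation took place twelve to sixteen days after the 2-leaf-stage plants were treated and kept in the greenhouse.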

smallflower flatsedge = assay: Test B flood test smallflower flatsedge; format: in vivo, Cyperus difformis
Method in brief: as §2

bamyardgrass = assay: Test B flood test barnyardgrass; format: in vivo, Echinochloa crus-galli
Method in brief: as §2

Alexandergrass = assay: Test D Alexandergrass; format: in vivo, Brachiaria plantaginea; settings: Preemergence, 0 to 100 scale
Method in brief: (§3)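 Values are visual plant-response ratings (0 no injury, 100 complete control) recorded 14 to 21 days after herbicide treatment, using a non-phytotoxic solvent mixture containing surfactant. Preemergence applications went to the surface of pots holding freshly sown seed in sandy loam.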

Johnson grass = assay: Test D Johnson grass; format: in vivo, Sorghum halepense; settings: Preemergence, 0 to 100 scale
Method in brief: as §3

surinam grass = assay: Test D surinam grass; format: in vivo, Brachiaria decumbens; settings: Preemergence, 0 to 100 scale
Method in brief: as §3

tall mallow = assay: Test D tall mallow; format: in vivo, Malva sylvestris; settings: Preemergence, 0 to 100 scale
Method in brief: as §3

winter wheat [3] = assay: Test E winter wheat; format: in vivo, Triticum aestivum; settings: Postemergence
Method in brief: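 For postemergence, sowings are timed so plants reach the 1- to 4-leaf stage at spraying. Test compound is applied in a surfactant-containing solvent mixture that is non-phytotoxic. Response is judged by eye against untreated controls after approximately 21 to 28 days.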

blackgrass [4] = assay: Test E blackgrass; format: in vivo, Alopecurus myosuroides; settings: Preemergence
green foxtail = assay: Test E green foxtail; format: in vivo, Setaria viridis; settings: Preemergence
Italian ryegrass = assay: Test E Italian ryegrass; format: in vivo, Lolium multiflorum; settings: Preemergence
winter wheat [5] = assay: Test E winter wheat; format: in vivo, Triticum aestivum; settings: Preemergence
wild oat [6] = assay: Test E wild oat; format: in vivo, Avena fatua; settings: Preemergence, 0 to 100 scale where 0 is no effect and 100 is complete control
winter barley = assay: Test E winter barley; format: in vivo, Hordeum vulgare; settings: Preemergence
[7] = Postemergence, Rate 125 g/ha, scale of 0 to 10 where 0 is no effect and 10 is complete control
[8] = Preemergence, Rate 62 g/ha, scale 0 to 10 (0 no effect, 10 complete control)
[9] = Preemergence, Rate 500 g/ha, scale 0 to 10 (0 no effect, 10 complete control)
[10] = Rate 62 g/ha, Postemergence, scale of 0 to 10 where 0 is no effect and 10 is complete control
[11] = Rate 500 g/ha, Postemergence, scale 0 to 10, 0 no effect, 10 complete control
[12] = Postemergence (flood test species), Rate 125 g/ha, scale of 0 to 10 where 0 is no effect and 10 is complete control
[13] = Rate 62 g/ha, Postemergence section, flood test species, scale of 0 to 10 where 0 is no effect and 10 is complete control
[14] = Rate 250 g/ha, Postemergence (flood test), scale 0 to 10, 0 is no effect, 10 is complete control
[15] = Rate 500 g/ha, listed under Postemergence (flood test species), scale 0 to 10, 0 no effect, 10 complete control
[16] = Rate 16 g/ha, 0 no injury, 100 complete control
[17] = Rate 32 g/ha, 0 no injury, 100 complete control
[18] = Rate 64 g/ha, 0 no injury, 100 complete control
[19] = Rate 125 g/ha, 0 no injury, 100 complete control
[20] = Rate 500 g/ha, 0 to 100 scale where 0 is no effect and 100 is complete control
[21] = Rate 1000 g/ha, 0 to 100 scale where 0 is no effect and 100 is complete control

SMILES: CC(C)N(C(=O)n1oc(=O)n(C2CCCCC2)c1=O)c1ccc(F)cc1F [Compound 115]
- Blackgrass plant response rating (blackgrass [1]; [7]): 4
- Blackgrass plant response rating (blackgrass [1]; Postemergence, Rate 250 g/ha, scale 0 to 10, 0 no effect, 10 complete control): 6
- Blackgrass plant response rating (blackgrass [1]; [8]): 0
- Plant response rating, Blackgrass (blackgrass [1]; Preemergence, Rate 125 g/ha, scale 0 to 10 (0 no effect, 10 complete control)): 0
- Plant response rating, Blackgrass (blackgrass [1]; Preemergence, Rate 250 g/ha, scale of 0 to 10 where 0 is no effect and 10 is complete control): 0
- Blackgrass plant response rating (blackgrass [1]; [9]): 6
- Blackgrass plant response rating (blackgrass [1]; [10]): 4
- Blackgrass plant response rating (blackgrass [1]; [11]): 7
- Wild oats plant response rating (wild oat [2]; [7]): 0
- Wild oats plant response rating (wild oat [2]; [8]): 0
- Wild oats plant response rating (0 to 10 scale) (wild oat [2]; Preemergence, Rate 125 g/ha, 0 is no effect, 10 is complete control): 0
- Plant response rating, Wild oats (wild oat [2]; Preemergence, scale of 0 to 10 where 0 is no effect and 10 is complete control): 0
- Wild oats plant response rating (wild oat [2]; [9]): 4
- Wild oats plant response rating (wild oat [2]; [10]): 0
- Plant response rating, Wild oats (wild oat [2]; Postemergence, scale 0 to 10, 0 is no effect, 10 is complete control): 0
- Wild oats plant response rating (wild oat [2]; [11]): 0
- Rice plant response rating (rice; [12]): 0
- Rice plant response rating (rice; [13]): 0
- Plant response rating, Rice (rice; [14]): 0
- Rice plant response rating (rice; [15]): 0
- S. Flatsedge plant response rating (smallflower flatsedge; [12]): 0
- S. Flatsedge plant response rating (smallflower flatsedge; [13]): 0
- Plant response rating, S. Flatsedge (smallflower flatsedge; [14]): 0
- S. Flatsedge plant response rating (smallflower flatsedge; [15]): 0
- Barnyardgrass plant response rating (bamyardgrass; Postemergence, Rate 62 g/ha, scale 0 to 10, 0 is no effect, 10 is complete control): 0
- Barnyardgrass plant response rating (bamyardgrass; Rate 125 g/ha, Postemergence section (flood test species), scale 0 to 10, 0 no effect, 10 complete control): 0
- Barnyardgrass plant response rating (bamyardgrass; [15]): 0
- Barnyardgrass plant response rating (bamyardgrass; flood test, listed under Postemergence, Rate 250 g/ha, scale 0 to 10, 0 no effect, 10 complete control): 0
- Plant response rating, Alexandergrass (Alexandergrass; [16]): 0
- Plant response rating, Alexandergrass (Alexandergrass; [17]): 20
- Plant response rating, Alexandergrass (Alexandergrass; [18]): 50
- Plant response rating, Alexandergrass (Alexandergrass; [19]): 75
- Plant response rating, Alexandergrass (Alexandergrass; Rate 250 g/ha): 85
- Plant response rating, Alexandergrass (Alexandergrass; Rate 500 g/ha): 100
- Plant response rating Johnsongrass (Johnson grass; [16]): 0
- Plant response rating Johnsongrass (Johnson grass; [17]): 40
- Plant response rating Johnsongrass (Johnson grass; [18]): 40
- Plant response rating Johnsongrass (Johnson grass; [19]): 60
- Plant response rating Johnsongrass (Johnson grass; Rate 250 g/ha): 75
- Plant response rating Johnsongrass (Johnson grass; Rate 500 g/ha): 90
- Plant response rating, Surinam grass (surinam grass; [16]): 0
- Plant response rating, Surinam grass (surinam grass; [17]): 20
- Surinam grass plant response rating (surinam grass; [18]): 65
- Surinam grass plant response rating (surinam grass; [19]): 75
- Plant response rating, Surinam grass (surinam grass; Rate 250 g/ha): 75
- Plant response rating, Surinam grass (surinam grass; Rate 500 g/ha): 85
- Plant response rating, Tall Mallow (tall mallow; [16]): 0
- Plant response rating, Tall Mallow (tall mallow; [17]): 0
- Tall Mallow plant response rating (tall mallow; [18]): 0
- Tall Mallow plant response rating (tall mallow; [19]): 0
- Plant response rating, Tall Mallow (tall mallow; Rate 250 g/ha): 0
- Plant response rating, Tall Mallow (tall mallow; Rate 500 g/ha): 0
- Plant response rating, Wheat (winter) (winter wheat [3]; Rate 250 g/ha, 0 to 100 scale (0 no effect, 100 complete control)): 10
- Plant response rating, Wheat (winter) (winter wheat [3]; Rate 1000 g/ha, 0 to 100 scale, 0 is no effect and 100 is complete control): 40
- Plant response rating, Wheat (winter) (winter wheat [3]; Rate 500 g/ha, 0 to 100 scale, 0 no effect, 100 complete control): 20
- Plant response rating, Blackgrass (blackgrass [4]; Rate 250 g/ha, 0 to 100 scale): 30
- Plant response rating, Blackgrass (blackgrass [4]; [20]): 50
- Plant response rating, Blackgrass (blackgrass [4]; [21]): 60
- Plant response rating, Green foxtail (green foxtail; Rate 250 g/ha, 0 to 100 scale): 65
- Plant response rating, Green foxtail (green foxtail; [20]): 70
- Plant response rating, Green foxtail (green foxtail; [21]): 90
- Plant response rating, I. Ryegrass (Italian ryegrass; Rate 250 g/ha, 0 to 100 scale): 45
- Plant response rating, I. Ryegrass (Italian ryegrass; [20]): 50
- Plant response rating, I. Ryegrass (Italian ryegrass; [21]): 80
- Plant response rating, Wheat (winter) (winter wheat [5]; Rate 250 g/ha, 0 to 100 scale): 5
- Plant response rating, Wheat (winter) (winter wheat [5]; [20]): 10
- Plant response rating, Wheat (winter) (winter wheat [5]; [21]): 20
- Plant response rating, Wild oat (wild oat [6]; Rate 500 g/ha): 50
- Plant response rating, Wild oat (wild oat [6]; Rate 1000 g/ha): 60
- Plant response rating, Barley (winter) (winter barley; Rate 250 g/ha, 0 to 100 scale): 10
- Plant response rating, Barley (winter) (winter barley; [20]): 20
- Plant response rating, Barley (winter) (winter barley; [21]): 30
